From article PMC2745609 (Journal of medicinal chemistry, 2009)

What was measured:
[1] = target: HIV-1 protease (Human immunodeficiency virus type 1 group M subtype B, UniProt P04585); experiment: HIV-1 protease enzyme inhibition; type: biochemical; settings: for fold improvement of enzyme Ki over 17a: relative to 17a
[2] = test system: HIV-1lai; experiment: Antiviral activity in MT-2 human T-lymphoid cells exposed to HIV-1LAI, MTT assay; type: cell-based; settings: for IC50: Human immunodeficiency virus 1, MT2, in Homo sapiens
[3] = test system: HIV-1ERS104pre (wild-type); experiment: Anti-HIV activity in PHA-PBM, p24 Gag production, wild-type clinical isolate; type: cell-based; settings: Human immunodeficiency virus 1, PBMC, read-out: IC50 against HIV-1ERS104pre

Structure (SMILES)	IC50 [2] [nM]	IC50 [3] [nM]	other results
COc1ccc(S(=O)(=O)N(C[C@@H]2CCC(=O)N2)C[C@@H](O)[C@H](Cc2ccccc2)NC(=O)O[C@H]2CO[C@H]3OCC[C@H]32)cc1 [Inhibitor 17a, (3R,3aS,6aR)-Hexahydrofuro[2,3-b]furan-3-yl(2S,3R)-3-hydroxy-4-(4-methoxy-N-(((S)-5-oxopyrrolidin-2-yl)methyl)phenylsulfonamido)-1-phenylbutan-2-yl-carbamate]	–	–	Ki ([1]; Ki (nM), enzyme inhibitory potency): 1 nM
COc1ccc(S(=O)(=O)N(C[C@@H]2CCC(=O)N2)C[C@@H](O)[C@H](Cc2ccccc2)NC(=O)O[C@@H]2C[C@@H]3CCO[C@@H]3C2)cc1 [Inhibitor 17b, (3aS,5R,6aR)-Hexahydro-2H–cyclopenta[b]furan-5-yl-(2S,3R)-3-hydroxy-4-(4-methoxy-N-(((S)-5-oxopyrrolidin-2-yl)methyl)phenylsulfonamido)-1-phenylbutan-2-ylcarbamate]	–	–	fold improvement of enzyme Ki over 17a [1]: 3 fold
Nc1ccc(S(=O)(=O)N(C[C@@H]2CCC(=O)N2)C[C@@H](O)[C@H](Cc2ccccc2)NC(=O)O[C@H]2CO[C@H]3OCC[C@H]32)cc1 [Inhibitor 18a, (3R,3aS,6aR)-Hexahydrofuro[2,3-b]furan-3-yl(2S,3R)-4-(4-amino-N-(((S)-5-oxopyrrolidin-2-yl)methyl)phenylsulfonamido)-3-hydroxy-1-phenylbutan-2-ylcarbamate]	> 1000	–	–
COc1ccc(S(=O)(=O)N(C[C@H]2CCC(=O)N2)C[C@@H](O)[C@H](Cc2ccccc2)NC(=O)O[C@H]2CO[C@H]3OCC[C@H]32)cc1 [Inhibitor 19a, (3R,3aS,6aR)-Hexahydrofuro[2,3-b]furan-3-yl(2S,3R)-3-hydroxy-4-(4-methoxy-N-(((R)-5-oxopyrrolidin-2-yl)methyl)phenylsulfonamido)-1-phenylbutan-2ylcarbamate]	–	–	fold improvement of enzyme Ki over 17a [1]: 10 fold
COc1ccc(S(=O)(=O)N(C[C@H]2CCC(=O)N2)C[C@@H](O)[C@H](Cc2ccccc2)NC(=O)O[C@@H]2C[C@@H]3CCO[C@@H]3C2)cc1 [Inhibitor 19b, (3aS,5R,6aR)-Hexahydro-2H–cyclopenta[b]furan-5-yl-(2S,3R)-3-hydroxy-4-(4-methoxy-N-(((R)-5-oxopyrrolidin-2-yl)methyl)phenylsulfonamido)-1-phenylbutan-2-ylcarbamate]	–	28	fold improvement in antiviral activity relative to 17b ([2]; relative to epimeric (S)-pyrrolidinone derivative 17b): 10 fold
Nc1ccc(S(=O)(=O)N(C[C@@H]2COC(=O)N2)C[C@@H](O)[C@H](Cc2ccccc2)NC(=O)O[C@H]2CO[C@H]3OCC[C@H]32)cc1 [Inhibitor 30, (3R,3aS,6aR)-hexahydrofuro[2,3-b]furan-3-yl-(2S,3R)-4-(4-amino-N-(((R)-2-oxooxazolidin-4-yl)methyl)phenylsulfonamido)-3-hydroxy-1-phenylbutan-2-ylcarbamate]	> 1000	–	–
CC(C)CN(C[C@@H](O)[C@H](Cc1ccccc1)NC(=O)O[C@H]1CCOC1)S(=O)(=O)c1ccc(N)cc1 [amprenavir, reference compound]	30	25	–
CC(C)(C)NC(=O)[C@@H]1CN(Cc2cccnc2)CCN1C[C@@H](O)C[C@@H](Cc1ccccc1)C(=O)N[C@H]1c2ccccc2C[C@H]1O [indinavir, reference compound]	30	28	–
CC(C)(C)NC(=O)[C@@H]1C[C@@H]2CCCC[C@@H]2CN1C[C@@H](O)[C@H](Cc1ccccc1)NC(=O)[C@H](CC(N)=O)NC(=O)c1ccc2ccccc2n1 [saquinavir, reference compound]	15	–	–
